Columns and labels:
[1] = system: oedema caused by the sub-plantar injection of carraghenin; experiment: Antiinflammatory: reduction of sub-plantar oedema caused by carraghenin, rat; assay type: in vivo; conditions: 100 mg/Kg/p.o.
Experimental: These properties are shown by a diminution of the local oedema caused by the sub-plantar injection of a phlogogenic agent, such as carraghenin, in the rat following the oral administration of compounds of formula (I).
The following Table VI lists, by way of example, the percentage reduction of the oedems caused by the sub-plantar injection of carraghenin, resulting from the administration of 100 mg/Kg/p.o. of different compounds of formula (I).

[2] = system: gastric ulcers, provoked in a rat by tying of the pylorus (Shay ulcers); experiment: Antiulcerous: reduction of Shay ulcers (tying of the pylorus); assay type: in vivo; conditions: 50 mg/Kg/i.d.
Experimental: The compounds of formula (I) administered by intraduodenal means reduce the extent of gastric ulcers, provoked in a rat by tying of the pylorus (Shay ulcers).
By way of example, there is listed in the following Table IX, the results obtained by the administrations of 50 mg/Kg/i.d. of different compounds of formula (I).

[3] = Lethal doses / percentage mortality, oral; assay type: in vivo; conditions: 2 000 mg/Kg/p.o.; 2000 mg/kg
From the text: As a result of a comparison between the pharmacologically active doses mentioned above and the lethal doses listed in the following Table XII, the difference between said doses is sufficiently great to permit the utilisation of the compounds of formula (I) in therapeutics.

[4] = system: isolated ileum of the guinea-pig; experiment: Antihistaminic: opposing histamine contraction of isolated ileum; conditions: promethazine as standard
Experimental: The compounds of formula I, introduced in the conserving medium, are capable of opposing the contractural action of histamine on the isolated ileum of the guinea-pig. This activity is evaluated by taking promethazine as standard.

[5] = system: excursions into the escape enclosure; experiment: Central nervous system stimulation: excursions in the escape test; assay type: in vivo; conditions: 100 mg/Kg/p.o., mouse
Experimental: The compounds of formula (I), administered by oral means to the mouse, provoke an augmentation of the number of excursions into the escape enclosure.
Thus, following the administration of 100 mg/Kg/p.o. of the compounds of Code Nos. 72 457 and 72 736, an augmentation of 30% in the number of excursions in the escape test, is observed.

[6] = system: rat suffering from high blood pressure; experiment: Antihypertensive: return of systolic arterial pressure to normal in rats with high blood pressure; assay type: in vivo; conditions: 200 mg/Kg/p.o.
From the text: The compounds of formula (I), administered by oral means to a rat suffering from high blood pressure, are capable of lowering the systolic arteriel pressure.
By way of example, there is provided in the following Table IV the results obtained by administration of different compounds of formula (I).

[7] = system: bronchoconstriction provoked in the guinea-pig by acetylcholine; experiment: Antibronchoconstrictive and anticholinergic: bronchoconstriction by intravenous acetylcholine, Konzett method; assay type: in vivo; conditions: 100 mg/kg/i.d.
From the text: Injected by intraveinous or intraduodenal means, the compounds of formula (I) are capable of opposing the bronchoconstriction provoked in the guinea-pig by the itraveinous injection of acetylcholine by the Konzett method.
By way of example, the following Table VII lists the results obtained by the administration of different compounds of formula (I)

volume of urine emitted = experiment: Diuretic: augmentation of urinary elimination; assay type: in vivo; conditions: 25 mg/Kg/p.o., mouse, 6 hours
Experimental: The compounds of formula (I), administered by oral means to the mouse, simultaneously with a volume of 1 ml. of an isotonic solution of sodium chloride per 25 g of the corporeal weight of the mouse, are capable of provoking an augmentation of the volume of urine emitted by reference to control animals, the volume being measured for 6 hours following administration.
By way of example, the following Table XI lists the results obtained by the administration of 25 mg/Kg/p.o. of different compounds of formula (I).

For `O=C(CCn1c(CN2CCCC2)nc2ccccc21)c1ccc(Cl)cc1` [72 366], the “Percentage reduction of sub-plantar oedema” value [1] was 60%, the “Percentage reduction of Shay ulcers” value [2] was 40% and the Percentage mortality [3] was 0%. The “antihistaminic activity relative to promethazine” value [4] was “equivalent activity to that of promethazine”.
With `Cc1ccc(C(=O)CCn2c(CN(C)C)nc3ccccc32)cc1` [72 457] the “augmentation in the number of excursions in the escape test” value [5] was 30%, the “Percentage reduction of Shay ulcers” value [2] was 30% and the “Percentage of rats with high blood pressure whose systolic arteriel pressure is returned to normal” value [6] was 50%. For the same compound, the “Percentage inhibition of bronchoconstriction” value [7] was 80%, the Percentage mortality [3] was 0% and the “Percentage augmentation of urinary elimination” value (volume of urine emitted) was 45%.

— patent US3962256A, “2-Aminomethyl benzimidazole derivatives” (Delalande S.A., priority 1973, dated 1976)
